Measurements: ChEMBL document CHEMBL1155862, “High affinity conformationally constrained nociceptin/orphanin FQ(1-13) amide analogues” (J Med Chem, 2008)
pEC50, pKi: −log10 of the molar value. Peptide text beside a SMILES is read from it.

Experiments:
Nociceptin receptor [1] = target: T1, Nociceptin receptor (Homo sapiens, UniProt P41146); assay: Binding affinity to human NOP receptor
Nociceptin receptor [2] = target: T1, Nociceptin receptor; assay: Displacement of [3H]N/OFQ from human NOP receptor expressed in CHO cells; format: cell-based
Nociceptin receptor [3] = target: T1, Nociceptin receptor; assay: Agonist activity at human NOP receptor expressed in CHO cells assessed as stimulation of [35S]GTPgammaS binding; format: functional, cell-based
Nociceptin receptor [4] = target: T1, Nociceptin receptor; assay: Agonist activity at human NOP receptor expressed in CHO cells assessed as stimulation of [35S]GTPgammaS binding relative to nociceptin/orphanin FQ (1-13)NH2 peptide; format: functional, cell-based
Nociceptin receptor [5] = target: T1, Nociceptin receptor; assay: Agonist activity at human NOP receptor by [35S]GTPgammaS binding assay; format: functional

T1 sequence (P41146 whole entry): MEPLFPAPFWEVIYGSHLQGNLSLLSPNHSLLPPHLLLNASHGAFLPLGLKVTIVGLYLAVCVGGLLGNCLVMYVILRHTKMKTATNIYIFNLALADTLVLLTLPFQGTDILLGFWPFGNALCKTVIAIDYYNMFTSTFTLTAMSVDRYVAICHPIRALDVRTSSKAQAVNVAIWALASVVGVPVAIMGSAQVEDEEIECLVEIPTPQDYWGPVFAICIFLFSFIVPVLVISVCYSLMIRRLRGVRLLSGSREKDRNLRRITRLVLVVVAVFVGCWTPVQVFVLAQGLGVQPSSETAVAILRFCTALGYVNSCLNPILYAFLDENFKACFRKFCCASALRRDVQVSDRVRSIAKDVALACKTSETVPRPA

Compound | pKi (Nociceptin receptor [2]) | pEC50 (Nociceptin receptor [3]) | Activity (Nociceptin receptor [4]) | also measured
C[C@H](NC(=O)[C@@H]1CSSC[C@H](NC(=O)[C@@H](NC(=O)[C@H](Cc2ccccc2)NC(=O)CNC(=O)CNC(=O)[C@@H](N)Cc2ccccc2)[C@@H](C)O)C(=O)N[C@@H](C)C(=O)N[C@@H](CCCNC(=N)N)C(=O)N[C@@H](CCCCN)C(=O)N1)C(=O)N[C@@H](CCCNC(=N)N)C(=O)N[C@@H](CCCCN)C(N)=O (HELM PEPTIDE1{F.G.G.F.T.C.A.R.K.C.A.R.K.[am]}$PEPTIDE1,PEPTIDE1,6:R3-10:R3$$$V2.0) |  |  |  | pKi (Nociceptin receptor [1]): 9.08
C[C@H](NC(=O)[C@@H]1CCCCNC(=O)C[C@@H](NC(=O)CNC(=O)[C@@H](NC(=O)[C@H](Cc2ccccc2)NC(=O)CNC(=O)CNC(=O)[C@@H](N)Cc2ccccc2)[C@@H](C)O)C(=O)N[C@@H](CCCNC(=N)N)C(=O)N[C@@H](CCCCN)C(=O)N1)C(=O)N[C@@H](CCCNC(=N)N)C(=O)N[C@@H](CCCCN)C(N)=O | 9.57 | 8.80 |  | 
C[C@H](NC(=O)[C@@H]1CCCCNC(=O)C[C@H](NC(=O)CNC(=O)[C@@H](NC(=O)[C@H](Cc2ccccc2)NC(=O)CNC(=O)CNC(=O)[C@@H](N)Cc2ccccc2)[C@@H](C)O)C(=O)N[C@@H](CCCNC(=N)N)C(=O)N[C@@H](CCCCN)C(=O)N1)C(=O)N[C@@H](CCCNC(=N)N)C(=O)N[C@@H](CCCCN)C(N)=O |  |  | 92% | 
C[C@H](NC(=O)[C@@H]1CSSC[C@H](NC(=O)CNC(=O)[C@@H](NC(=O)[C@H](Cc2ccccc2)NC(=O)CNC(=O)CNC(=O)[C@@H](N)Cc2ccccc2)[C@@H](C)O)C(=O)N[C@@H](CCCN=C(N)N)C(=O)N[C@@H](CCCCN)C(=O)N1)C(=O)N[C@@H](CCCN=C(N)N)C(=O)N[C@@H](CCCCN)C(N)=O (HELM PEPTIDE1{F.G.G.F.T.G.C.R.K.C.A.R.K.[am]}$PEPTIDE1,PEPTIDE1,7:R3-10:R3$$$V2.0) |  |  |  | pKi (Nociceptin receptor [1]): 10.00; pEC50 (Nociceptin receptor [5]): 9.16
H-FGGFTDARKKARK-NH2 | 9.27 | 7.65 | 122% | 
C[C@H](NC(=O)[C@H](CCCCN)NC(=O)[C@H](CCCCN)NC(=O)[C@H](CCCN=C(N)N)NC(=O)[C@@H](CC(=O)O)NC(=O)CNC(=O)[C@@H](NC(=O)[C@H](Cc1ccccc1)NC(=O)CNC(=O)CNC(=O)[C@@H](N)Cc1ccccc1)[C@@H](C)O)C(=O)N[C@@H](CCCN=C(N)N)C(=O)N[C@@H](CCCCN)C(N)=O | 8.75 | 6.97 |  | 
C[C@H](NC(=O)[C@@H]1CCCCNC(=O)C[C@H](NC(=O)[C@@H](NC(=O)[C@H](Cc2ccccc2)NC(=O)CNC(=O)CNC(=O)[C@@H](N)Cc2ccccc2)[C@@H](C)O)C(=O)N[C@@H](C)C(=O)N[C@@H](CCCNC(=N)N)C(=O)N[C@@H](CCCCN)C(=O)N1)C(=O)N[C@@H](CCCNC(=N)N)C(=O)N[C@@H](CCCCN)C(N)=O (HELM PEPTIDE1{F.G.G.F.T.D.A.R.K.K.A.R.K.[am]}$PEPTIDE1,PEPTIDE1,6:R3-10:R3$$$V2.0) |  |  | 80% | 
C[C@H](NC(=O)[C@@H]1CCCCNC(=O)C[C@H](NC(=O)[C@@H](NC(=O)[C@H](Cc2ccccc2)NC(=O)CNC(=O)CNC(=O)[C@@H](N)Cc2ccccc2)[C@@H](C)O)C(=O)N[C@@H](C)C(=O)N[C@@H](CCCN=C(N)N)C(=O)N[C@@H](CCCCN)C(=O)N1)C(=O)N[C@@H](CCCN=C(N)N)C(=O)N[C@@H](CCCCN)C(N)=O (HELM PEPTIDE1{F.G.G.F.T.D.A.R.K.K.A.R.K.[am]}$PEPTIDE1,PEPTIDE1,6:R3-10:R3$$$V2.0) | 9.47 | 8.39 |  | 
C[C@H](NC(=O)[C@H](CCCCN)NC(=O)[C@H](CCCCN)NC(=O)[C@H](CCCNC(=N)N)NC(=O)[C@@H](CC(=O)O)NC(=O)CNC(=O)[C@@H](NC(=O)[C@H](Cc1ccccc1)NC(=O)CNC(=O)CNC(=O)[C@@H](N)Cc1ccccc1)[C@@H](C)O)C(=O)N[C@@H](CCCNC(=N)N)C(=O)N[C@@H](CCCCN)C(N)=O |  |  | 100% | 
